Test results published in paper PMC4779111, “A Human Renal Proximal Tubule Cell Line with Stable Organic Anion Transporter 1 and 3 Expression Predictive for Antiviral-Induced Toxicity” (The AAPS Journal, 2016).
Structures can show the parent of a compound that is named as a salt. Where two headings read alike, the source gives them in different places.

T1: OAT3 (Homo sapiens, UniProt Q8TCC7)
T1 sequence (Q8TCC7 1-542): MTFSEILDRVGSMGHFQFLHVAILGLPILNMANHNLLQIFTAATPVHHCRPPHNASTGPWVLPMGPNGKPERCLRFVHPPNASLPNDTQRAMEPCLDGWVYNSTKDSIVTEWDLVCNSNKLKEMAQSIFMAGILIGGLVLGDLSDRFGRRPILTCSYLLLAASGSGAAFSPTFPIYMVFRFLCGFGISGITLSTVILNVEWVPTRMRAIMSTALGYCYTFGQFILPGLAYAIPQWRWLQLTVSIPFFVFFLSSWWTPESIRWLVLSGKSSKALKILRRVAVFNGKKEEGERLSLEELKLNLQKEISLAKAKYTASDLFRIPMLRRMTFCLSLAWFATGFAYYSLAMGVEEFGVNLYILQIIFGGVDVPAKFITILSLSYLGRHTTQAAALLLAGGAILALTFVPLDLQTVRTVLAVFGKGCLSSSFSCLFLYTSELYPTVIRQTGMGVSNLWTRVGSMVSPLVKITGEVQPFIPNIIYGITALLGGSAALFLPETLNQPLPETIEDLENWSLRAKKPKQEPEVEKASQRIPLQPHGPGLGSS

T2: OAT1 (Homo sapiens, UniProt Q4U2R8)
T2 sequence (Q4U2R8 1-563): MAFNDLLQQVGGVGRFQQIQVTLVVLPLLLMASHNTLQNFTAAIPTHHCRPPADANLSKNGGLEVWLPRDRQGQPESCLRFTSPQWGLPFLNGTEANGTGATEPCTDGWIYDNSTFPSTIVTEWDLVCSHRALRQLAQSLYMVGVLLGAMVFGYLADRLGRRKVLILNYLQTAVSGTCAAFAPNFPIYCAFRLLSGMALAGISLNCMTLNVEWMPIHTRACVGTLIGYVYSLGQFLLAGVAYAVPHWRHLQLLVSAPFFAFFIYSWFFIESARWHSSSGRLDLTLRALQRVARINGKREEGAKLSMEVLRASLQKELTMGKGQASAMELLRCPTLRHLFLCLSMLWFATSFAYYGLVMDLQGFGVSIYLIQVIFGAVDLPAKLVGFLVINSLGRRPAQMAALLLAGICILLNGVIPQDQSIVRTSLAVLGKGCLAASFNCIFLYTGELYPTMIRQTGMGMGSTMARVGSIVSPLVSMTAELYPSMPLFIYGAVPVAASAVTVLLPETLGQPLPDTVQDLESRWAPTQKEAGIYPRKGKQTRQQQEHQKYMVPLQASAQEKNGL


Legend:
OAT3 [1] = molecular target: T1, OAT3; assay: Inhibition of OAT-mediated fluorescein uptake in ciPTEC-OAT3
Method: (§1) All chemicals were obtained from Sigma, unless stated otherwise. Uptake was stopped by washing three times with ice-cold HBSS (4°C).
(§2) Non-linear regression with variable slope constraining the top to 100% was used to fit the data after background subtraction with GraphPad Prism. Statistics was performed by two-way ANOVA (two-tailed, α = 0.05) using GraphPad Prism as well. All data is presented as mean ± SEM of at least three separate experiments (n = 3) performed in triplicate, unless stated otherwise.

OAT3 [2] = molecular target: T1, OAT3; settings: substrate estrone sulfate, Xenopus-OAT3; read-out: IC50 (literature); cited from earlier work
[3] = MTT viability assay, ciPTEC-OAT1; format: cell-based, human; settings: human, ciPTEC-OAT1 cells (monolayers, 96-well); for IC50 at 24 h: read-out: IC50 on cell viability (MTT), 24 h; for IC50 at 72 h: read-out: IC50 on cell viability (MTT), 72 h
ciPTEC-OAT1 = assay: MTT viability assay, ciPTEC-OAT1; format: cell-based, human; settings: for Cell viability (MTT): ciPTEC-OAT1, 1 mM, 48 h, serum-free medium; for Cell viability (MTT), concentration and time dependence: ciPTEC-OAT1, 24, 48 and 72 h
ciPTEC-OAT3 = assay: MTT viability assay, ciPTEC-OAT3; format: cell-based, human; settings: for Cell viability (MTT), concentration and time dependence: ciPTEC-OAT3, 24, 48 and 72 h
Method: Cell toxicity was analyzed further in presence of MRP and BCRP efflux inhibitors MK571 (5 μM) and KO143 (10 μM).

[4] = plasma, maximal free plasma concentration, 47 (zidovudine), cited from earlier work
[5] = design: method as in PMID 19445515; settings: cited from earlier work
hOAT1-CHO and HEK-OAT1 = settings: cited from earlier work
OAT1 [6] = molecular target: T2, OAT1; assay: Inhibition of OAT-mediated fluorescein uptake in ciPTEC-OAT1; format: cell-based; design: host or cells: ciPTEC (human conditionally immortalized proximal tubule epithelial cells), lentiviral transduction; settings: for Effect on OAT-mediated fluorescein uptake (in words): ciPTEC-OAT1, fluorescein 1 μM, 10 min; for DDI index Cmax/IC50: ciPTEC-OAT1, with the second-listed (higher) Cmax
Method: as §1, §2

OAT1 [7] = molecular target: T2, OAT1; assay: OAT1-mediated fluorescein uptake kinetics in ciPTEC-OAT1; format: cell-based; design: host or cells: ciPTEC (human conditionally immortalized proximal tubule epithelial cells), lentiviral transduction
Method: as §1

OAT3 [8] = molecular target: T1, OAT3; assay: OAT3-mediated fluorescein uptake kinetics in ciPTEC-OAT3; format: cell-based; design: host or cells: ciPTEC (human conditionally immortalized proximal tubule epithelial cells), lentiviral transduction; settings: n = 4
Method: as §1

OAT1 [9] = molecular target: T2, OAT1; design: method as in PMID 23856525; settings: substrate PAH, HeLa-OAT1; read-out: IC50 (literature); cited from earlier work
[10] = substrate: O=C1OC2(c3ccc(O)cc3Oc3cc(O)ccc32)c2ccccc21; assay: cells, lysate or membranes; settings: other: fluorescein uptake, 10 min, Michaelis-Menten with linear diffusion, mean ± SEM, n = 4; 37.0 °C
[11] = first-listed (lower) value per drug, ref 40 (adefovir), 42 (cidofovir), 45 (tenofovir)
[12] = second-listed (higher) value per drug, ref 41 (adefovir), 43 (cidofovir), 46 (tenofovir)
[13] = 120 h, OAT1 overexpression cells, read-out: IC50 on cell viability (literature), 120 h
[14] = read-out: IC50 on cell viability (literature), 48 h, OAT1 overexpression cells

| Molecule | IC50 at 48 h [3] | IC50 at 24 h [3] | IC50 at 72 h [3] | Cell viability (MTT) (ciPTEC-OAT1) | Cell viability (MTT), concentration and time dependence (ciPTEC-OAT1) | Cell viability (MTT), concentration and time dependence (ciPTEC-OAT3) | Cmax [4, 11] | Cmax [4, 12] | Renal excretion of unchanged drug (in words) [5] | IC50 (hOAT1-CHO and HEK-OAT1; [13]) | IC50 (hOAT1-CHO and HEK-OAT1; [14]) | IC50 (OAT1 [6]) | Effect on OAT-mediated fluorescein uptake (in words) (OAT1 [6]) | other results |
| --- | --- | --- | --- | --- | --- | --- | --- | --- | --- | --- | --- | --- | --- | --- |
| C[C@]12CC[C@@H]3c4ccc(OS(=O)(=O)O)cc4CC[C@H]3[C@@H]1CCC2=O [Estrone sulfate, estrone sulfate] | – | – | – | – | – | – | – | – | – | – | – | – | – | IC50 (OAT3 [1]; read-out: IC50 of fluorescein uptake, ciPTEC-OAT3, fluorescein 1 μM, 10 min, HBSS 37°C, mean ± SEM, n = 4, cimetidine: apparent IC50 due to partial inhibition): 2.1 ± 0.3 µM; IC50 (OAT3 [2]): 3 µM |
| Nc1ccn(C[C@@H](CO)OCP(=O)(O)O)c(=O)n1 [Cidofovir, cidofovir] | 130 ± 58 µM | 613 ± 384 µM | 69 ± 2 µM | significantly affected cell viability | concentration- and time-dependent decrease in viability | less pronounced | 15.8 µM | 26.3 µM | largely excreted unchanged by the kidneys | 3 ± 1 µM | 0.5 ± 0.2 µM | 71 ± 34 µM | Concentration-dependent inhibition | – |
| O=C1OC2(c3ccc(O)cc3Oc3cc(O)ccc32)c2ccccc21 [Fluorescein, fluorescein] | – | – | – | – | – | – | – | – | – | – | – | – | – | Vmax (OAT1 [7]; fluorescein uptake, 10 min, n = 4): 695 ± 84 RFU; Fluorescein affinity for OAT1 relative to OAT3 (OAT1 [7]; from Km values of Table I): approximately fivefold higher; Kd (OAT1 [7]; passive diffusion component kd of fluorescein uptake, n = 4): 2.4 ± 1.2 RFU*L/μmol; Vmax (OAT3 [8]; fluorescein uptake, 10 min): 384 ± 103 RFU; Kd (OAT3 [8]; passive diffusion component kd of fluorescein uptake): 4.3 ± 0.9 RFU*L/μmol |
| Nc1ccc(C(=O)NCC(=O)O)cc1 [Para-aminohippuric acid, para-aminohippuric acid] | – | – | – | – | – | – | – | – | – | – | – | – | – | IC50 (OAT3 [1]): 152 ± 3 µM; Fluorescein uptake by flow cytometry in presence of inhibitor (OAT3 [1]; transduced ciPTEC-OAT3, fluorescein 1 μM, 10 min, inhibitor 100 μM): sensitive to para-aminohippuric acid-induce inhibition |
| C[C@H](Cn1cnc2c(N)ncnc21)OCP(=O)(O)O [Tenofovir, tenofovir] | 189 ± 48 µM | 114 ± 25 µM | 223 ± 67 µM | significantly affected cell viability | concentration- and time-dependent decrease in viability | less pronounced | 0.52 µM | 0.72 µM | largely excreted unchanged by the kidneys | 21 ± 7 µM | 10 ± 2 µM | 42 ± 8 µM | Concentration-dependent inhibition | IC50 (OAT1 [9]): 29.3 µM; Cell viability (MTT) (ciPTEC-OAT3; ciPTEC-OAT3, 1 mM, 48 h, serum-free medium): slightly decreased; DDI index Cmax/IC50 (OAT1 [6]): 0.019 |
| Nc1ncnc2c1ncn2CCOCP(=O)(O)O [Adefovir, adefovir] | 303 ± 38 µM | 462 ± 52 µM | 230 ± 37 µM | significantly affected cell viability | concentration- and time-dependent decrease in viability | less pronounced | 1.6 µM | 38.8 µM | largely excreted unchanged by the kidneys | 1.4 ± 0.7 µM | 0.22 ± 0.08 µM | 23 ± 4 µM | Concentration-dependent inhibition | IC50 (OAT1 [9]): 8.1 µM; DDI index Cmax/IC50 (OAT1 [6]): 4.2 |
| OAT1 (Homo sapiens) (protein) MAFNDLLQQVGGVGRFQQIQVTLVVLPLLLMASHNTLQNFTAAIPTHHCRPPADANLSKNGGLEVWLPRDRQGQPESCLRFTSPQWGLPFLNGTEANGTGATEPCTDGWIYDNSTFPSTIVTEWDLVCSHRALRQLAQSLYMVGVLLGAMVFGYLADRLGRRKVLILNYLQTAVSGTCAAFAPNFPIYCAFRLLSGMALAGISLNCMTLNVEWMPIHTRACVGTLIGYVYSLGQFLLAGVAYAVPHWRHLQLLVSAPFFAFFIYSWFFIESARWHSSSGRLDLTLRALQRVARINGKREEGAKLSMEVLRASLQKELTMGKGQASAMELLRCPTLRHLFLCLSMLWFATSFAYYGLVMDLQGFGVSIYLIQVIFGAVDLPAKLVGFLVINSLGRRPAQMAALLLAGICILLNGVIPQDQSIVRTSLAVLGKGCLAASFNCIFLYTGELYPTMIRQTGMGMGSTMARVGSIVSPLVSMTAELYPSMPLFIYGAVPVAASAVTVLLPETLGQPLPDTVQDLESRWAPTQKEAGIYPRKGKQTRQQQEHQKYMVPLQASAQEKNGL | – | – | – | – | – | – | – | – | – | – | – | – | – | Km [10]: 0.8 ± 0.1 µM |
| OAT3 (Homo sapiens) (protein) MTFSEILDRVGSMGHFQFLHVAILGLPILNMANHNLLQIFTAATPVHHCRPPHNASTGPWVLPMGPNGKPERCLRFVHPPNASLPNDTQRAMEPCLDGWVYNSTKDSIVTEWDLVCNSNKLKEMAQSIFMAGILIGGLVLGDLSDRFGRRPILTCSYLLLAASGSGAAFSPTFPIYMVFRFLCGFGISGITLSTVILNVEWVPTRMRAIMSTALGYCYTFGQFILPGLAYAIPQWRWLQLTVSIPFFVFFLSSWWTPESIRWLVLSGKSSKALKILRRVAVFNGKKEEGERLSLEELKLNLQKEISLAKAKYTASDLFRIPMLRRMTFCLSLAWFATGFAYYSLAMGVEEFGVNLYILQIIFGGVDVPAKFITILSLSYLGRHTTQAAALLLAGGAILALTFVPLDLQTVRTVLAVFGKGCLSSSFSCLFLYTSELYPTVIRQTGMGVSNLWTRVGSMVSPLVKITGEVQPFIPNIIYGITALLGGSAALFLPETLNQPLPETIEDLENWSLRAKKPKQEPEVEKASQRIPLQPHGPGLGSS | – | – | – | – | – | – | – | – | – | – | – | – | – | Km [10]: 3.7 ± 0.5 µM |
